# According to US20110021588A1, “SUBLINGUAL DEXMEDITOMIDINE COMPOSITIONS AND METHODS OF USE THEREOF” (RECRO PHARMA, INC., priority 2009, published 2011):
# Read-outs that look alike come from different tables or passages of the source.
# Tests used:
# [1] = in vivo; details: male, Beagle, dog
# Method: The purpose of the study was to assess the pharmacokinetics and absolute bioavailability of dexmedetomidine in a group of five Beagle dogs (males, each aged 5 to 8 months and weighing between 7.5 and 9.2 kg) following sublingual spray administration of the different formulations described in Tables 1 and 2.
# For sublingual administration, a spray application was administered by one depression of a pump device into the oral cavity under the tongue. In order to ensure proper pump priming, two actuations were performed prior to dosing. Following dose administration, serial blood samples were collected form each subject animal by venipuncture of a jugular vein as follows: 0 (predose), 0.083, 0.167, 0.25, 0.33, 0.5, 1, 2, and 6 hours post-sublingual dose. […] Blood samples were collected in vacutainer tubes containing K2EDTA as anticoagulant, and derived plasma samples were stored frozen until analyzed.
# [2] = human, cited from earlier work
# [3] = human, cited from earlier work; remark: listed apart in the source
smiles,measurement,setting,value
"Cc1cccc([C@H](C)c2cnc[nH]2)c1C [dexmedetomidine, 5-[(1S)-1-(2,3-dimethylphenyl)ethyl]-1H-imidazole]",Cmax,[1],0.914 ng/mL
same,Tmax,[1],0.333 h
same,apparent elimination half-life,[2]; buccal,1.9 h
same,time of maximum concentration,[2]; buccal,approximately 1.5 h
same,mean buccal bioavailability,[2]; solution held in mouth without swallowing,81.8%
same,absolute bioavailability,[3]; i.m. administration,73%
same,time to maximum concentration in blood,[3]; i.m. administration,1.6 to 1.7 h
same,mean elimination half-life,[3]; i.m. dosing,3 h
same,mean elimination half-life,[3]; i.v. dosing,1.5 h
same,absolute bioavailability,[3]; transdermal administration,88%
same,mean elimination half-life,[3]; transdermal administration,5.6 h
same,time to maximum concentration in blood,[3]; transdermal administration,6 h
